Assay results from article PMC7182600 (Influenza and Other Respiratory Viruses, 2020).
Values joined by “and” are separate entries in the source; they are usually repeats but may differ in a detail not shown here. Equal entries are not always repeated.

Molecular target: NA of B/Tokyo/UT‐AC032/2018 (G407S) (Influenza B virus, UniProt A0A1W5M8K7, G407S)
Format: biochemical

Compound | fold differences in IC50 | susceptibility to NA inhibitor (in words) | IC50 (read-out: IC50 values of NA inhibitors)
Peramivir | 64 fold and 32.1 ± 12.9 (64.2) fold | marked reduction in susceptibility | 32.1 nM
CC(=O)N[C@H]1[C@H]([C@H](O)[C@H](O)CO)OC(C(=O)O)=C[C@@H]1N=C(N)N [Zanamivir] |  | marked reduction in susceptibility | 
CCC(CC)O[C@@H]1C=C(C(=O)O)C[C@H](N)[C@H]1NC(C)=O [Oseltamivir carboxylate] |  | moderately reduced susceptibility | 
[H]/N=C(\N)N[C@H]1C=C(C(=O)O)O[C@@H]([C@H](OC)[C@H](O)CO)[C@@H]1NC(C)=O [Laninamivir] |  | marked reduction in susceptibility | 
